The values below come from US20040214721A1 (priority 2001, published 2004).

What is called melting point is the temperature of the solid-liquid transition. In the case of `CCOc1ccc(-c2ccccc2NC(=O)[C@@H](NS(C)(=O)=O)C(C)C)cc1OC`, the melting point fell in the range of 95 to 98 °C.
Compound `COc1ccc(-c2ccccc2NC(=O)[C@@H](NS(C)(=O)=O)C(C)C)cc1OC` came in with a melting point of 68 to 70 °C.
Regarding `COc1ccc(-c2ccccc2NC(=O)CNS(C)(=O)=O)cc1OC`, the melting point was 158 to 160 °C.
Consider `CCC#CCOc1ccc([C@@H]2CCCC[C@H]2NC(=O)[C@@H](NS(=O)(=O)CC)C(C)C)cc1OC`, for which the melting point lay in the range of 133 to 136 °C.
The result for `CCC#CCOc1ccc([C@@H]2CCCC[C@H]2NC(=O)[C@@H](NS(=O)(=O)N(C)C)C(C)C)cc1OC` reads 158 to 160 °C.
The value for `C#CCOc1ccc([C@@H]2CCCC[C@H]2NC(=O)[C@@H](NS(C)(=O)=O)C(C)C)cc1OC` was 183 to 185 °C; that for `CCC#CCOc1ccc([C@@H]2CCCC[C@H]2NC(=O)[C@@H](NS(C)(=O)=O)C(C)C)cc1OC` was 166 to 168 °C; that for `C#CCOc1ccc([C@@H]2CCCC[C@H]2NC(=O)[C@@H](NS(=O)(=O)CC)C(C)C)cc1OC` was 149 to 151 °C.
